Reference: paper PMC10804683, “Identification of the pyridoxal 5′‐phosphate allosteric site in human pyridox(am)ine 5′‐phosphate oxidase” (Protein Science : A Publication of the Protein Society, 2024)
Numbering of substitutions follows the chain as printed.

How the values were obtained:
[1] = biological target: T1, human PNPO F48A/E50L/R161C/R258L variant (Homo sapiens, UniProt Q9NVS9, E50L/F48A/R161C/R258L); test: PLP binding by DSF, F48A/E50L/R161C/R258L
T1 construct: a main form corresponding to the entire protein; made in house; host or cells: E. coli BL21(DE3)
T1 sequence (Q9NVS9 1-261 F48A/E50L/R161C/R258L): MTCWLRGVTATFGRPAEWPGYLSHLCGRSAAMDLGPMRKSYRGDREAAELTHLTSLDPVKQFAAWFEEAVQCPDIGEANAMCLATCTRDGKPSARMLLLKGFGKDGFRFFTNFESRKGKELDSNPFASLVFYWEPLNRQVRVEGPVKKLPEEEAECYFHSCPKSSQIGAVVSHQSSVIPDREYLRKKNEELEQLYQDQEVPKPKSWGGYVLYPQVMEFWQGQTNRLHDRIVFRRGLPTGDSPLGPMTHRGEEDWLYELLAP
Source text: (§1) PLP binding to PNPO can be detected and quantitatively measured using differential scanning fluorimetry (DSF) and also by measuring FMN fluorescence changes. We had previously attributed DSF changes to PLP binding at the active site, while FMN fluorescence changes were attributed to PLP binding at the allosteric site (Barile et al., [2019], [2020]). Previous experiments carried out with the PNPO R161C variant, affecting a residue that is essential for substrate binding and catalysis (and therefore also for PLP binding at the active site), confirms that DSF measurements only report PLP binding at the active site (Barile et al., [2021]; Table 1). The dissociation constant values obtained with DSF are almost the same for the three variants and doubled with respect to the wild type enzyme (Figure 2, Table 1). This behavior reflects the decrease of affinity of these variants for the substrates compared to the wild type PNPO. We expected to observe no FMN fluorescence changes upon titration of the variants with PLP. However, this was not the case, and the dissociation constant values obtained by observing the FMN fluorescence emission were only up to threefold larger in the variants with respect to wild type PNPO (Figure 3). […] To check the second possibility, we measured intrinsic fluorescence changes of wild type and variant apo‐forms (i.e., without FMN) upon PLP titration. […]

[2] = biological target: T2, human PNPO F48A/E50L/H248N/R258L variant (holo-enzyme) (Homo sapiens, UniProt Q9NVS9, E50L/F48A/H248N/R258L); test: PLP binding by FMN fluorescence changes, holo quadruple variant; settings: 100 nM enzyme, read-out: PLP binding KD^FLUO
T2 construct: a main form corresponding to the entire protein; made in house; host or cells: E. coli BL21(DE3)
T2 sequence (Q9NVS9 1-261 F48A/E50L/H248N/R258L): T1 sequence (Q9NVS9 1-261 F48A/E50L/R161C/R258L) with C161R, H248N
Source text: as §1, with “The dissociation constant values obtained with DSF are almost the same for the three variants and doubled with respect to the wild type enzyme (Figure 2, Table 1). This behavior reflects the decrease of affinity of these variants for the substrates compared to the wild type PNPO.” left out
Analyses of PLP binding, based on FMN fluorescence increase observed upon binding of PLP to PNPO, were performed as described in Barile et al. ([2020]). […] Emission spectra were recorded from […], with excitation and emission slits set at 3 and 5 nm, respectively. […]

Structure (SMILES): Cc1ncc(COP(=O)(O)O)c(C=O)c1O [PLP, pyridoxal 5′‐phosphate]
- PLP binding KD^DSF [1]: No binding
- Kd [2]: 2850 ± 250 nM
